# Laboratory results as given in patent US20020001582A1, “Methods and compositions for inhibiting microbial growth” (priority 1999, published 2002).
# What was measured:
# IM188 Botrytis cinerea = assay: Inhibition of Botrytis by lysozyme in PD broth, % plate coverage; type: cell-based; settings: for fungal growth (% plate coverage): day 14
# Experimental: (§1) Botrytis was grown in petri dishes on PD agar. Potato dextrose broth was prepared, poured into glass dilution bottles (100 ml each), autoclaved and allowed to cool. […] A fungal square (plug) of each culture was cut and placed in/near the center of each plate. Fungal growth was quantified by measuring the diameter of growth of each fungus while it was growing on the liquid media in each petri dish using a ruler. Each treatment was done in triplicate. The experiment was repeated three times (three batches). The observation period for each batch was 2 weeks.
# (§2) The fungal growth was expressed in % coverage of the petri dishes by the fungal patches. The calculation is presented in the following equation:
# (§3) Fungal growth (%)=(area of fungal patch/total plate area )×100
# (§4) The average plate coverage for each treatment was plotted against the time after inoculation (FIGS. 14-19). Statistical analysis was carried out using SigmaStat (Version 2.0, SPSS Science, 1997).
# [1] = tested on: IM113 Botrytis cinerea(Pers.); assay: as above; type: cell-based; settings: for fungal growth (% plate coverage): day 14
# Experimental: as §1, §2, §3, §4
# [2] = tested on: IM082 Botrytis (blueberry, BCMAF F25); assay: as above; type: cell-based; settings: for coverage of the petri dishes: day 14
# Experimental: as §1, §2, §3, §4
# [3] = tested on: IM080 Botrytis (pepper, BCMAF F24); assay: as above; type: cell-based; settings: for average fungal growth (% plate coverage): day 14
# Experimental: as §1, §2, §3, §4
# [4] = tested on: IM112 Botrytis cinerea(Pers.); assay: as above; type: cell-based
# Experimental: as §1, §2, §3, §4
# [5] = tested on: IM111 Botrytis (blueberry, BCMAF F27); assay: as above; type: cell-based; settings: for fungal growth (% plate coverage): day 14
# Experimental: as §1, §2, §3, §4
# S. homoeocarpa = assay: Suppression of fungal disease on young bentgrass, greenhouse trial; type: in vivo
# Experimental: (§5) Creeping bentgrass (Agrotis spp.) cv. Penncross was used as the host in the greenhouse trials. This species is widely used in golf greens and is easily managed under greenhouse conditions. Bentgrass was seeded in 6 cm diameter and 5 cm height pots (made from PVC pipes) containing steam sterilized river washed sand. A seeding rate of 0.1 g/pot was used to ensure rapid establishment of a uniform, dense stand. Throughout the experiment, the grass was regularly watered, fertilized and maintained at a cutting height approximately 2.0 cm above the soil surface.
# (§6) Virulent isolates of test fungi were grown on a rye grain medium for approximately one week. This medium consisted of 50 g of rye grain, 1 g of CaCO3, and 75 ml of water. It was prepared in a 250 ml Erlenmeyer flask and autoclaved for 30 minutes. Three to five plugs of the actively growing mycelia from week old cultures on potato dextrose agar were transferred into flasks, and incubated in the dark at room temperature.
# (§7) Pots of eight-week-old bentgrass were inoculated with the test fungi by placing 2-3 kernels of infected rye in the center of the grass area, just above the soil surface. After inoculation, pots were placed in humidity chambers on a greenhouse bench. Temperature during incubation was maintained at 27-30° C. for disease development and the growth of the test fungi.
# (§8) Approximately 1.6-2.4 ml was applied to each pot and the treatment was repeated 24 hours later. Untreated bentgrass was used as a control. All treatments were replicated 8 times and arranged in a completely randomized design. This trial was repeated three times.
# G. graminis = assay: as above; type: in vivo; settings: 5,000 and 10,000 ppm
# Experimental: as §5, §6, §7, §8
# Sclerotinia homoeocarpa = assay: Suppressive treatment of mature bentgrass (lysozyme 24 and 48 hours after inoculation); type: in vivo; settings: day 7, 14 or 21, except 5,000 ppm on day 21
# Experimental: One year old bentgrass (Agrotis spp.) cv Pennlink was used as the host in this trial. It was grown in an open field at Select Sand Farm in Fort Langley, B.C. Round pieces of turfgrass, 6 cm diameter, were cut out and placed on 5 cm high pots (made from PVC pipes) containing steam sterilized river washed sand. The potted grass was regularly watered, fertilized and maintained at a cutting height of approximately 2.0 cm above the soil surface.
# The efficacy of egg white lysozyme was tested on Sclerotinia homoeocarpa. Virulent isolates of the test fungi were grown on a rye grain medium for approximately one week. This medium consisted of 50 g of rye grain, 1 g of CaCO3, and 75 ml of water. The medium was prepared in a 250 ml Erlenmeyer flask and autoclaved for 30 minutes. Three to five plugs of the actively growing mycelia from one-week-old culture on potato dextrose agar were transferred into flasks, and incubated in the dark at room temperature.
# In a second test three weeks after it was potted, the bentgrass was first inoculated with the test fungi by placing 3 infected rye kernels in the center of the pot, just above the soil surface. After inoculation, the pots were placed in humidity chambers on a greenhouse bench. Temperature during incubation was maintained at 27-30° C. for disease development. […]
# Pots were removed from the humidity chamber and evaluated individually for disease severity. […]
# Fusarium = assay: Lysozyme against Fusarium inoculated from liquid broth; type: cell-based
# Experimental: PD broth was prepared and autoclaved in dilution bottles (100 ml) and allowed to cool. Various amounts of lysozyme were added into the bottles and dissolved. […] One ml of Fusarium broth was transferred into each dish and the contents were mixed well. The plates were incubated at room temperature for 2 weeks. The trial was carried out in triplicate and was repeated three times. Pictures of the fungi were taken daily using a digital camera and the data was transferred on to the computer and processed.
substance,measurement,setting,value
"lysozyme: type c egg white lysozyme, enzyme of approximately 129 amino acids; commercially available from Canadian Inovatech, Inc.",fungal growth (% plate coverage),IM188 Botrytis cinerea; 50 ppm,87.2%
same,fungal growth (% plate coverage),IM188 Botrytis cinerea; 100 ppm,86.2%
same,fungal growth (% plate coverage),IM188 Botrytis cinerea; 250 ppm,34.0%
same,fungal growth (% plate coverage),IM188 Botrytis cinerea; 500 ppm,16.4%
same,fungal growth (% plate coverage),IM188 Botrytis cinerea; 1000 ppm,11.3%
same,concentration at which the fungal growth was significantly reduced,IM188 Botrytis cinerea; p<0.05,100 ppm
same,fungal growth (% plate coverage),[1]; 50 ppm,96.9%
same,fungal growth (% plate coverage),[1]; 100 ppm,90.6%
same,fungal growth (% plate coverage),[1]; 250 ppm,65.4%
same,fungal growth (% plate coverage),[1]; 500 ppm,43.0%
same,fungal growth (% plate coverage),[1]; 1000 ppm,34.7%
same,minimum concentration required to effectively inhibit this strain,[1]; p<0.05,100 ppm
same,coverage of the petri dishes,[2]; 50 ppm,65.8%
same,coverage of the petri dishes,[2]; 100 ppm,59.5%
same,coverage of the petri dishes,[2]; 250 ppm,36.1%
same,coverage of the petri dishes,[2]; 500 ppm,19.9%
same,coverage of the petri dishes,[2]; 1000 ppm,14.4%
same,lowest concentration that significantly reduced the fungal growth,[2]; p<0.05,50 ppm
same,Minimum lysozyme usage recommended,[3],250-500 ppm
same,average fungal growth (% plate coverage),[3]; 50 ppm,77.7%
same,average fungal growth (% plate coverage),[3]; 100 ppm,79.5%
same,"fungal growth (% plate coverage) compared to 0, 50 and 100 ppm (Tukey)","[3]; 250, 500 and 1000 ppm",significantly reduced
same,average fungal growth (% plate coverage),[3]; 250 ppm,38.6%
same,average fungal growth (% plate coverage),[3]; 500 ppm,25.7%
same,average fungal growth (% plate coverage),[3]; 1000 ppm,20.8%
same,fungal growth (% plate coverage),[4]; 50 ppm,89.4%
same,fungal growth (% plate coverage),[4]; 100 ppm,90.0%
same,fungal growth (% plate coverage),[4]; 250 ppm,61.5%
same,fungal growth (% plate coverage),[4]; 500 ppm,36.2%
same,fungal growth (% plate coverage),[4]; 1000 ppm,33.9%
same,concentration required to significantly reduce the growth,[4]; p<0.05,100 ppm
same,fungal growth (% plate coverage),[5]; 50 ppm,33.7%
same,fungal growth (% plate coverage),[5]; 100 ppm,37.8%
same,fungal growth (% plate coverage),[5]; 250 ppm,23.5%
same,fungal growth (% plate coverage),[5]; 500 ppm,18.0%
same,lowest concentration that significantly reduced the fungal growth,[5]; p<0.05,50 ppm
same,S. homoeocarpa inhibition compared to the untreated control,"S. homoeocarpa; 2,500, 5,000 and 10,000 ppm sprayed 24 and 48 h after inoculation, day 7, 14 and 21",significant S. homoeocarpa inhibition
same,"infection compared with bentgrass treated with 2,500 ppm","S. homoeocarpa; 5,000 and 10,000 ppm, day 14 and 21 after inoculation",significantly less infection
same,control against G. graminis,G. graminis,good control
same,reducing the infection of S. homoeocarpa,Sclerotinia homoeocarpa,not effective
same,inhibition against Fusarium,Fusarium; 100 ppm or lower,not very effective
same,inhibition against Fusarium,Fusarium; 250 ppm,very good inhibition
same,time for which growth of Fusarium is limited,Fusarium; 250 ppm,two weeks
